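1) Cells in 96-well plates. 2) Compound, 48 h, 5 concentrations. 3) Linear interpolation between surrounding doses. 4) Unreached endpoint = highest concentration. GI50: concentration for 50% inhibition of growth.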 The source made the active and inactive calls. Cut-off read from the data, not from the text of the source: active = GI50 up to about 1.1 µM and inactive = higher.
Key:
Assay in all cases: NCI tumour cell line growth inhibition, 48 h
SF-268 = system: SF-268
NCI-H23 = system: NCI-H23
SF-295 = system: SF-295
OVCAR-5 = system: OVCAR-5
KM12 = system: KM12
SNB-75 = system: SNB-75
NCI-H460 = system: NCI-H460
MOLT-4 = system: MOLT-4
COLO 205 = system: COLO 205
HCT-116 = system: HCT-116
SW-620 = system: SW-620
UO-31 = system: UO-31
SNB-19 = system: SNB-19
EKVX = system: EKVX
OVCAR-8 = system: OVCAR-8
HOP-62 = system: HOP-62
IGROV-1 = system: IGROV-1
K562 = system: K562
UACC-257 = system: UACC-257
SK-OV-3 = system: SK-OV-3

Measured: GI50

Cc1cc(C)nc(NS(=O)(=O)c2ccc(NC(=O)c3cccn4c(=O)c5ccccc5nc34)cc2)n1
inactive: SF-268 51.1 µM | NCI-H23 35.3 µM | SF-295 > 100 µM | OVCAR-5 > 100 µM | KM12 41.1 µM | SNB-75 32.7 µM | NCI-H460 41.5 µM | MOLT-4 23.8 µM | COLO 205 40.6 µM | HCT-116 53.5 µM | SW-620 34.9 µM | UO-31 27.5 µM | SNB-19 62.5 µM | EKVX 26.1 µM | OVCAR-8 27.7 µM | HOP-62 > 100 µM | IGROV-1 > 100 µM | K562 32.1 µM

CCOC(=O)C1=C(C)N2CCCOC2(C)C(C(=O)OC)C1c1cccc([N+](=O)[O-])c1 (centres undefined)
inactive: SF-268 > 100 µM | NCI-H23 > 100 µM | SF-295 45.2 µM | KM12 49.9 µM | SNB-75 13.6 µM | NCI-H460 57.4 µM | MOLT-4 34.3 µM | COLO 205 > 100 µM | HCT-116 49.7 µM | SW-620 > 100 µM | UO-31 51.6 µM | UACC-257 86.5 µM | SNB-19 > 100 µM | EKVX 50 µM | OVCAR-8 48 µM | HOP-62 99.1 µM | IGROV-1 > 100 µM | K562 55.2 µM

c1cc2c(c(-c3c4ccccc4nc4ccccc34)c1)CC1(CC2)OCCO1
inactive: SF-268 > 100 µM | NCI-H23 > 100 µM | SK-OV-3 > 100 µM | SF-295 > 100 µM | OVCAR-5 > 100 µM | KM12 > 100 µM | SNB-75 > 100 µM | NCI-H460 > 100 µM | MOLT-4 > 100 µM | COLO 205 > 100 µM | HCT-116 > 100 µM | SW-620 > 100 µM | UO-31 > 100 µM | UACC-257 > 100 µM | SNB-19 > 100 µM | EKVX > 100 µM | OVCAR-8 > 100 µM | HOP-62 > 100 µM | IGROV-1 > 100 µM | K562 > 100 µM

CCOC1=C2N=C(C(CC)c3ccc(F)cc3)N=C2C(=O)c2ccccc21 (centres undefined)
inactive: SF-268 19.7 µM | NCI-H23 25.3 µM | SK-OV-3 32.1 µM | SF-295 21 µM | OVCAR-5 26.6 µM | KM12 21.9 µM | SNB-75 21 µM | NCI-H460 26.5 µM | MOLT-4 18 µM | COLO 205 22.3 µM | HCT-116 23.9 µM | SW-620 36.4 µM | UO-31 13.2 µM | UACC-257 20.2 µM | SNB-19 51.4 µM | EKVX 26.9 µM | OVCAR-8 30.5 µM | HOP-62 46.3 µM | IGROV-1 23.5 µM | K562 20.6 µM

COC(=O)CC(=O)OC
inactive: SF-268 > 100 µM | NCI-H23 > 100 µM | SK-OV-3 > 100 µM | SF-295 > 100 µM | OVCAR-5 > 100 µM | KM12 > 100 µM | SNB-75 > 100 µM | NCI-H460 > 100 µM | MOLT-4 > 100 µM | COLO 205 > 100 µM | HCT-116 > 100 µM | SW-620 > 100 µM | UO-31 > 100 µM | UACC-257 > 100 µM | SNB-19 > 100 µM | EKVX > 100 µM | OVCAR-8 > 100 µM | HOP-62 > 100 µM | IGROV-1 > 100 µM | K562 > 100 µM

CCCCNS(=O)(=O)c1n[nH]c(=O)[nH]c1=O
inactive: SF-268 > 100 µM | NCI-H23 > 100 µM | SK-OV-3 17.6 µM | SF-295 16.9 µM | OVCAR-5 > 100 µM | KM12 > 100 µM | SNB-75 82.6 µM | NCI-H460 > 100 µM | MOLT-4 > 100 µM | COLO 205 > 100 µM | HCT-116 > 100 µM | SW-620 > 100 µM | UO-31 > 100 µM | SNB-19 > 100 µM | EKVX > 100 µM | OVCAR-8 > 100 µM | HOP-62 23.5 µM | IGROV-1 > 100 µM | K562 > 100 µM

CC1Cc2cc(O)c(O)cc2-c2cc(O)c(O)cc2CC1C (centres undefined)
inactive: SF-268 25.9 µM | NCI-H23 14.8 µM | SK-OV-3 36.8 µM | SF-295 4.41 µM | OVCAR-5 18.9 µM | KM12 4.48 µM | SNB-75 > 100 µM | NCI-H460 20.4 µM | MOLT-4 14 µM | COLO 205 17.8 µM | HCT-116 17.9 µM | SW-620 20.5 µM | UO-31 25.3 µM | UACC-257 12.3 µM | SNB-19 26.5 µM | EKVX 18.5 µM | OVCAR-8 23.3 µM | HOP-62 17.9 µM | IGROV-1 20.4 µM | K562 12.8 µM

COc1ccc(CN/C=N/C(C#N)=C(\N)C#N)cc1OC
inactive: SF-268 > 100 µM | NCI-H23 > 100 µM | SK-OV-3 > 100 µM | SF-295 > 100 µM | OVCAR-5 > 100 µM | KM12 > 100 µM | SNB-75 76.7 µM | NCI-H460 > 100 µM | MOLT-4 > 100 µM | COLO 205 > 100 µM | HCT-116 > 100 µM | SW-620 > 100 µM | UO-31 65 µM | UACC-257 > 100 µM | SNB-19 > 100 µM | EKVX > 100 µM | OVCAR-8 > 100 µM | HOP-62 > 100 µM | IGROV-1 > 100 µM | K562 > 100 µM

C[n+]1c2ccccc2c(NC(CS)C(=O)O)c2ccccc21 (centres undefined)
inactive: SF-268 19.8 µM | NCI-H23 32 µM | SK-OV-3 23.3 µM | SF-295 19.9 µM | OVCAR-5 74.1 µM | KM12 18.6 µM | SNB-75 24.2 µM | NCI-H460 29.8 µM | MOLT-4 13.8 µM | COLO 205 30.1 µM | HCT-116 13.5 µM | SW-620 39.3 µM | UO-31 16.2 µM | UACC-257 33.7 µM | SNB-19 40.6 µM | EKVX 24.4 µM | OVCAR-8 19.4 µM | HOP-62 30.3 µM | IGROV-1 25.4 µM | K562 28.6 µM

NC1=NC(=O)[C@H](Cc2c[nH]c3ccccc23)N1C(=O)OCc1ccccc1
inactive: SF-268 73.8 µM | NCI-H23 38.1 µM | SF-295 75.3 µM | OVCAR-5 > 100 µM | KM12 > 100 µM | SNB-75 50.9 µM | NCI-H460 93.8 µM | MOLT-4 28.7 µM | COLO 205 > 100 µM | HCT-116 57.9 µM | SW-620 > 100 µM | UO-31 38.1 µM | UACC-257 49.3 µM | SNB-19 > 100 µM | EKVX 45.3 µM | OVCAR-8 46 µM | HOP-62 > 100 µM | IGROV-1 77.6 µM | K562 30.8 µM

— ChEMBL document CHEMBL1201862, “PubChem BioAssay data set” (2004)
